Measurements from ChEMBL document CHEMBL4622952, “Synthesis and biological evaluation of Schizandrin derivatives as tubulin polymerization inhibitors” (Bioorg Med Chem Lett, 2020).
Active and inactive are the calls of the source. The calls are words filed in the database; no cut-off is given here.

How the values were obtained:
A549 = assay: Antiproliferative activity against human A549 cells assessed as reduction in cell viability measured after 48 hrs by MTT assay; format: functional, cell-based; settings: for IC50: A549, 48 h
[1] = (§1) Antiproliferative activity against human RKOP3 cells assessed as reduction in cell viability measured after 48 hrs by MTT assay; format: functional, cell-based
Homo sapiens = species: Homo sapiens; assay: as §1; format: functional, cell-based
DU-145 [2] = assay: Antiproliferative activity against human DU145 cells assessed as reduction in cell viability measured after 48 hrs by MTT assay; format: functional, cell-based; settings: for IC50: DU-145, 48 h
HeLa = assay: Antiproliferative activity against human HeLa cells assessed as reduction in cell viability measured after 48 hrs by MTT assay; format: functional, cell-based
HEK293 = assay: Cytotoxicity against human HEK293 cells assessed as reduction in cell viability measured after 48 hrs by MTT assay; format: cell-based
DU-145 [3] = assay: Cell cycle arrest in human DU145 cells assessed as accumulation at G0/G1 phase at 5 uM measured after 24 hrs by propidium iodide staining based flow cytometry analysis (reference value: 58.2 %); format: functional
DU-145 [4] = assay: Cell cycle arrest in human DU145 cells assessed as accumulation at G0/G1 phase at 3 uM measured after 24 hrs by propidium iodide staining based flow cytometry analysis (reference value: 58.2 %); format: functional
DU-145 [5] = assay: Cell cycle arrest in human DU145 cells assessed as accumulation at G0/G1 phase at 1.5 uM measured after 24 hrs by propidium iodide staining based flow cytometry analysis (reference value: 58.2 %); format: functional
DU-145 [6] = assay: Induction of apoptosis in human DU145 cells assessed as live cells at 1.5 uM measured after 48 hrs by annexinV-FITC/propidium iodide staining based flow cytometry analysis (reference value: 97.09 %); format: functional
DU-145 [7] = assay: Induction of apoptosis in human DU145 cells assessed as early apoptotic cells at 1.5 uM measured after 48 hrs by annexinV-FITC/propidium iodide staining based flow cytometry analysis (reference value: 2.34 %); format: functional
DU-145 [8] = assay: Induction of apoptosis in human DU145 cells assessed as late apoptotic cells at 1.5 uM measured after 48 hrs by annexinV-FITC/propidium iodide staining based flow cytometry analysis (reference value: 0.05 %); format: functional
DU-145 [9] = assay: Induction of apoptosis in human DU145 cells assessed as necrotic cells at 1.5 uM measured after 48 hrs by annexinV-FITC/propidium iodide staining based flow cytometry analysis (reference value: 0.52 %); format: functional
DU-145 [10] = assay: Induction of apoptosis in human DU145 cells assessed as live cells at 3.5 uM measured after 48 hrs by annexinV-FITC/propidium iodide staining based flow cytometry analysis (reference value: 97.09 %); format: functional
DU-145 [11] = assay: Induction of apoptosis in human DU145 cells assessed as early apoptotic cells at 3.5 uM measured after 48 hrs by annexinV-FITC/propidium iodide staining based flow cytometry analysis (reference value: 2.34 %); format: functional
DU-145 [12] = assay: Induction of apoptosis in human DU145 cells assessed as late apoptotic cells at 3.5 uM measured after 48 hrs by annexinV-FITC/propidium iodide staining based flow cytometry analysis (reference value: 0.05 %); format: functional
DU-145 [13] = assay: Induction of apoptosis in human DU145 cells assessed as necrotic cells at 3.5 uM measured after 48 hrs by annexinV-FITC/propidium iodide staining based flow cytometry analysis (reference value: 0.52 %); format: functional
DU-145 [14] = assay: Induction of apoptosis in human DU145 cells assessed as live cells at 5 uM measured after 48 hrs by annexinV-FITC/propidium iodide staining based flow cytometry analysis (reference value: 97.09 %); format: functional
DU-145 [15] = assay: Induction of apoptosis in human DU145 cells assessed as early apoptotic cells at 5 uM measured after 48 hrs by annexinV-FITC/propidium iodide staining based flow cytometry analysis (reference value: 2.34 %); format: functional
DU-145 [16] = assay: Induction of apoptosis in human DU145 cells assessed as late apoptotic cells at 5 uM measured after 48 hrs by annexinV-FITC/propidium iodide staining based flow cytometry analysis (reference value: 0.05 %); format: functional
DU-145 [17] = assay: Induction of apoptosis in human DU145 cells assessed as necrotic cells at 5 uM measured after 48 hrs by annexinV-FITC/propidium iodide staining based flow cytometry analysis (reference value: 0.52 %); format: functional
Tubulin (Homo sapiens) [18] = molecular target: T1, Tubulin (Homo sapiens) (UniProt P68371+Q9H4B7+P0DPH7+P68366+Q13509+Q71U36+P04350+Q3ZCM7+P07437+P68363+Q9BQE3+Q6PEY2+Q13885+Q9BVA1+Q9BUF5); assay: Inhibition of tubulin […] in human DU145 cells assessed as increase in soluble fraction of tubulin at […] measured after 24 hrs by Western blot analysis; format: cell-based; settings: DU-145
Tubulin (Homo sapiens) [19] = molecular target: T1, Tubulin (Homo sapiens); assay: Inhibition of tubulin polymerization in human HeLa cells assessed as disruption of microtubule network at 10 uM measured after 24 hrs by immunofluorescence assay; format: cell-based
DU-145 [20] = assay: Induction of apoptosis in human DU145 cells assessed as live cells at 2.54 uM measured after 24 hrs by annexinV-FITC/propidium iodide staining based flow cytometry analysis (reference value: 97.09 %); format: functional
DU-145 [21] = assay: Induction of apoptosis in human DU145 cells assessed as early apoptotic cells at 2.54 uM measured after 24 hrs by annexinV-FITC/propidium iodide staining based flow cytometry analysis (reference value: 2.34 %); format: functional
DU-145 [22] = assay: Induction of apoptosis in human DU145 cells assessed as late apoptotic cells at 2.54 uM measured after 24 hrs by annexinV-FITC/propidium iodide staining based flow cytometry analysis (reference value: 0.05 %); format: functional
DU-145 [23] = assay: Induction of apoptosis in human DU145 cells assessed as necrotic cells at 2.54 uM measured after 24 hrs by annexinV-FITC/propidium iodide staining based flow cytometry analysis (reference value: 0.52 %); format: functional
[24] = Induction of apoptosis in human RKOP3 cells assessed as live cells at 2 uM measured after 24 hrs by annexinV-FITC/propidium iodide staining based flow cytometry analysis (reference value: 98.19 %); format: functional
[25] = Induction of apoptosis in human RKOP3 cells assessed as early apoptotic cells at 2 uM measured after 24 hrs by annexinV-FITC/propidium iodide staining based flow cytometry analysis (reference value: 1.8 %); format: functional
[26] = Induction of apoptosis in human RKOP3 cells assessed as late apoptotic cells at 2 uM measured after 24 hrs by annexinV-FITC/propidium iodide staining based flow cytometry analysis (reference value: 0.01 %); format: functional
[27] = Induction of apoptosis in human RKOP3 cells assessed as necrotic cells at 2 uM measured after 24 hrs by annexinV-FITC/propidium iodide staining based flow cytometry analysis (reference value: 0 %); format: functional
[28] = Homo sapiens, HEK293, 48 h, read-out: IC50

| IC50 (A549) [µM] | IC50 (DU-145 [2]) [µM] | IC50 (HeLa) [µM] | Structure (SMILES) | inhibition (A549) | IC50 [1] [µM] | inhibition (Homo sapiens) | inhibition (DU-145 [2]) | inhibition (HeLa) | IC50 (HEK293; [28]) [µM] | other results |
| --- | --- | --- | --- | --- | --- | --- | --- | --- | --- | --- |
| 6.5 | 3.42 | 45.3 | CCC(=O)O/N=C1\C=C2C[C@H](C)[C@@]3(C)Cc4cc(OC)c(OC)c(OC)c4C23C(OC)=C1OC (some centres undefined) | Dose-dependent effect | 60.5 | Dose-dependent effect | Dose-dependent effect | Dose-dependent effect | 65.1 | Activity (DU-145 [3]): 71.07%; Activity (DU-145 [4]): 66.4%; Activity (DU-145 [5]): 66.97%; Activity (DU-145 [6]): 75.71%; Activity (DU-145 [7]): 23.33%; Activity (DU-145 [8]): 0.96%; Activity (DU-145 [9]): 0%; Activity (DU-145 [10]): 68.5%; Activity (DU-145 [11]): 27.56%; Activity (DU-145 [12]): 3.87%; Activity (DU-145 [13]): 0.07%; Activity (DU-145 [14]): 68.98%; Activity (DU-145 [15]): 29.44%; Activity (DU-145 [16]): 1.54%; Activity (DU-145 [17]): 0.04%; inhibition (Tubulin (Homo sapiens) [18]): Active; inhibition (Tubulin (Homo sapiens) [19]): Active |
| 7.8 | 50.5 | 15.2 | COC1=C(OC)C23C(=C/C1=N\OC(=O)C1CC1)C[C@H](C)[C@@]2(C)Cc1cc(OC)c(OC)c(OC)c13 (some centres undefined) | Dose-dependent effect | 60 | Dose-dependent effect | Dose-dependent effect | Dose-dependent effect | 65.9 | – |
| – | – | – | COC(=O)Nc1nc2cc(C(=O)c3cccs3)ccc2[nH]1 | – | – | – | – | – | – | inhibition (Tubulin (Homo sapiens) [18]): Active |
| 7.8 | 9.6 | 4.23 | COC1=C(OC)C23C(=CC1=O)C[C@H](C)[C@@]2(C)Cc1cc(OC)c(OC)c(OC)c13 (some centres undefined) | Dose-dependent effect | 50.5 | Dose-dependent effect | Dose-dependent effect | Dose-dependent effect | 49.7 | – |
| 5.92 | 20.3 | 7.4 | COC1=C(OC)C23C(=C/C1=N\OC(=O)c1ccc(Br)cc1)C[C@H](C)[C@@]2(C)Cc1cc(OC)c(OC)c(OC)c13 (some centres undefined) | Dose-dependent effect | 9.7 | Dose-dependent effect | Dose-dependent effect | Dose-dependent effect | 135 | – |
| 8.52 | 7.55 | 50.1 | COC1=C(OC)C23C(=C/C1=N\O)C[C@H](C)[C@@]2(C)Cc1cc(OC)c(OC)c(OC)c13 (some centres undefined) | Dose-dependent effect | 55.9 | Dose-dependent effect | Dose-dependent effect | Dose-dependent effect | 54.8 | – |
| 6.08 | 25.5 | 4.74 | COC1=C(OC)C23C(=C/C1=N\OC(=O)C(C)C)C[C@H](C)[C@@]2(C)Cc1cc(OC)c(OC)c(OC)c13 (some centres undefined) | Dose-dependent effect | 15.4 | Dose-dependent effect | Dose-dependent effect | Dose-dependent effect | 80.5 | – |
| – | 2.54 | 1.94 | COc1cccc2c1C(=O)c1c(O)c3c(c(O)c1C2=O)C[C@@](O)(C(=O)CO)C[C@@H]3O[C@H]1C[C@H](N)[C@H](O)[C@H](C)O1 [DOXORUBICIN] | – | 2.23 | – | – | – | – | IC50 (HEK293; hek293): Not Active; Activity (DU-145 [20]): 46.09%; Activity (DU-145 [21]): 46.08%; Activity (DU-145 [22]): 7.83%; Activity (DU-145 [23]): 0%; Activity [24]: 60.97%; Activity [25]: 37.21%; Activity [26]: 1.77%; Activity [27]: 0.05% |
| 9.02 | 16.6 | 5.5 | COC1=C(OC)C23C(=C/C1=N\OC(=O)c1ccc(F)cc1)C[C@H](C)[C@@]2(C)Cc1cc(OC)c(OC)c(OC)c13 (some centres undefined) | Dose-dependent effect | 20.9 | Dose-dependent effect | Dose-dependent effect | Dose-dependent effect | 81.6 | – |
| 8.5 | 5.38 | 5.06 | COc1cc2c(c(OC)c1OC)-c1c(cc(OC)c(OC)c1OC)C[C@](C)(O)[C@@H](C)C2 [SCHIZANDRIN] | Dose-dependent effect | 5.36 | Dose-dependent effect | Dose-dependent effect | Dose-dependent effect | 80.5 | – |
| 6.9 | 22.9 | 12.9 | CCCCC(=O)O/N=C1\C=C2C[C@H](C)[C@@]3(C)Cc4cc(OC)c(OC)c(OC)c4C23C(OC)=C1OC (some centres undefined) | Dose-dependent effect | 14.8 | Dose-dependent effect | Dose-dependent effect | Dose-dependent effect | 112 | – |
| 8.4 | 25 | 8.37 | CCOC(=O)CCC(=O)O/N=C1\C=C2C[C@H](C)[C@@]3(C)Cc4cc(OC)c(OC)c(OC)c4C23C(OC)=C1OC (some centres undefined) | Dose-dependent effect | 22.6 | Dose-dependent effect | Dose-dependent effect | Dose-dependent effect | 85.4 | – |
| 7.4 | 37.5 | 50.8 | COC1=C(OC)C23C(=C/C1=N\OC(=O)c1c(Cl)cc(Cl)cc1Cl)C[C@H](C)[C@@]2(C)Cc1cc(OC)c(OC)c(OC)c13 (some centres undefined) | Dose-dependent effect | 40.7 | Dose-dependent effect | Dose-dependent effect | Dose-dependent effect | 79.8 | – |
